Target: T1, Vc (6-4) PL (Vibrio cholerae, UniProt Q9KLD7)
T1 construct: gene VC_A0809
Experiment: X-ray crystallography, […] Å
Type: binding
Conditions: 100 K

T1 sequence (Q9KLD7 1-516 limits assumed): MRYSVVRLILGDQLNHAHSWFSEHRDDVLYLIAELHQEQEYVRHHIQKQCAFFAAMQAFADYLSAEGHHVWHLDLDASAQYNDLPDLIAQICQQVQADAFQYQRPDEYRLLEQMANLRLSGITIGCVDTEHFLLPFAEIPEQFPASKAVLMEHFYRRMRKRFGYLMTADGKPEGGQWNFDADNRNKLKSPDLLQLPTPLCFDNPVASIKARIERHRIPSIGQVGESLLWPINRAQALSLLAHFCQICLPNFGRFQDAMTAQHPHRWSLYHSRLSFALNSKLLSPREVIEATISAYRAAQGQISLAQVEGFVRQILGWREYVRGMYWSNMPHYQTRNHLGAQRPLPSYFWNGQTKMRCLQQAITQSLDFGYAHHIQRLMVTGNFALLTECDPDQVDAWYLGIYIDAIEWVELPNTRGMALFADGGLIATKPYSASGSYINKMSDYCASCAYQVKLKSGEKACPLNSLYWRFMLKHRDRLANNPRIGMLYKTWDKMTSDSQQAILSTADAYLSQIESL

Compound: Cc1nc2c(=O)[nH]c(=O)nc-2n(C[C@H](O)[C@H](O)[C@H](O)CO)c1C [DMRL]
- X-ray crystallography, 2.5 Å (photoantenna site in alpha/beta domain, co-purified): there is a very well-defined electron density of the DMRL and interacting amino acid residues

Compound: Cc1cc2nc3c(=O)[nH]c(=O)nc-3n(C[C@H](O)[C@H](O)[C@H](O)COP(=O)(O)OP(=O)(O)OC[C@H]3O[C@@H](n4cnc5c(N)ncnc54)[C@H](O)[C@@H]3O)c2cc1C [FAD]
- X-ray crystallography, 2.5 Å (catalytic site in alpha-helical domain, co-purified, redox state not stated): FAD has a U-shaped conformation in the α-helical domain

Compound: [S]12[Fe]3[S]4[Fe]1[S]1[Fe]2[S]3[Fe]41 [[4Fe-4S] cluster]
- X-ray crystallography, 2.5 Å (bound by Cys357, Cys445, Cys448, Cys461, covalent coordination, co-purified aerobically): Cys357, Cys445, Cys448, and Cys461 sulfide atoms make bonds with Fe atoms in the cluster
